The values below come from patent US11566057B2, “Long-acting co-agonists of the glucagon and GLP-1 receptors” (Merck Sharp & Dohme Corp., priority 2017, dated 2023).

One test has as its target T1, human GCGR (Homo sapiens, UniProt P47871).
T1 construct: expressed in transfected cells; growth medium holds Blasticidin and Hygromycin
The experiment in a line: cAMP activity assay at the Glucagon receptor (GCGR). The test is classed as cell-based. The note with it: for hGCGR/hGLP1R (hTone): ratio of GCGR EC50 to GLP1R EC50. In outline: (§1)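 Peptides serially diluted from DMSO (10 points) and added to frozen-stock cells bearing human GLP1R (10,000 cells/well) or GCGR (30,000 cells/well), 1 h at RT, dark. EC50 by four-parameter logistic fit of HitHunter cAMPXS luminescence, read following overnight RT incubation.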

In the next test the target is T2, human GLP1R (Homo sapiens, UniProt P43220).
T2 construct: expressed in transfected cells; growth medium holds Blasticidin and Hygromycin
The test is described as follows: cAMP activity assay at the GLP-1 receptor (GLP1R). Type of test: cell-based. In outline:
as §1

The mark [1] stands for this setting: summary statement: EC50 at each of the glucagon and GLP-1 receptors, read-out: EC50 at the glucagon receptor.
[2] abbreviates: summary statement: EC50 at each of the glucagon and GLP-1 receptors, read-out: EC50 at the GLP-1 receptor.
[3] abbreviates: cells expressing human GCGR, cAMP production, buffer with or without 20% human serum (not stated which), read-out: GCGR EC50 human.

Where two headings read alike, the source gives them in different places. Numbered stars: 1 amine (or outer) side, 2 acyl side, 3 side chain; on linkers, the order of the positions; unused ones are H or OH. Square brackets hold non-standard residues; d marks the D form. Side chains are listed from the residue outwards. Peptide text beside a SMILES is read from it. * marks the point of attachment. C20 diacid = O=C(O)CCCCCCCCCCCCCCCCCCC(=O)*; C18 diacid = O=C(O)CCCCCCCCCCCCCCCCC(=O)*; C16 diacid = O=C(O)CCCCCCCCCCCCCCC(=O)*; γGlu = O=C(O)[C@H](CCC(=O)[*:2])N[*:1]; Met(O2) = CS(=O)(=O)CC[C@H](N)C(=O)O; αMeD = C[C@](N)(CC(=O)O)C(=O)O; αMeS = C[C@](N)(CO)C(=O)O; AEEA = NCCOCCOCC(=O)O; Aib = CC(C)(N)C(=O)O

T1 sequence (P47871 26-477): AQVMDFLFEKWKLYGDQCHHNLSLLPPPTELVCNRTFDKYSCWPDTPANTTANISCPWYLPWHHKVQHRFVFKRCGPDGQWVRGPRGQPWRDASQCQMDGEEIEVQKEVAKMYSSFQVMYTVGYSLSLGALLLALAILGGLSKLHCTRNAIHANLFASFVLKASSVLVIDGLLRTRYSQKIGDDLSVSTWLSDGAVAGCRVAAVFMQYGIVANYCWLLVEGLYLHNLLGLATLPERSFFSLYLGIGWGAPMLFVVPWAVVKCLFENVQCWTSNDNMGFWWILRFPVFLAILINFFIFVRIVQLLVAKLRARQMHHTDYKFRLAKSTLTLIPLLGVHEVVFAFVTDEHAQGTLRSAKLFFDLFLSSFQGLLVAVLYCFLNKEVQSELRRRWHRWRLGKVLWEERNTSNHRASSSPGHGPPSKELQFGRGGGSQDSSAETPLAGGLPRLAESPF
T2 sequence (P43220 24-463): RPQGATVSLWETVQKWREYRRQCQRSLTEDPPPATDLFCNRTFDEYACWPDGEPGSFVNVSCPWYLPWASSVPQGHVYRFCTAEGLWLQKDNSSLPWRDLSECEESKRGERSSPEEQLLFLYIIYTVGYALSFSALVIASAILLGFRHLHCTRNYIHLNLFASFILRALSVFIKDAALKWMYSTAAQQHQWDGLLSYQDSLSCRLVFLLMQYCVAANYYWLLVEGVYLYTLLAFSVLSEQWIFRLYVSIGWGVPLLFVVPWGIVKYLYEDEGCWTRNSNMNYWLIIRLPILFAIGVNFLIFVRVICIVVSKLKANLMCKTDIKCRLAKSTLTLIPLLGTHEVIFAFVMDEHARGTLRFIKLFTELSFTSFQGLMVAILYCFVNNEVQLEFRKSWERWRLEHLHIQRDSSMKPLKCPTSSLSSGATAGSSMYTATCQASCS

On to `CC(C)C[C@H](NC(=O)[C@H](Cc1ccc(O)cc1)NC(=O)[C@H](CCCCN)NC(=O)[C@H](CO)NC(=O)[C@H](Cc1ccc(O)cc1)NC(=O)[C@H](CC(=O)O)NC(=O)[C@H](CO)NC(=O)[C@@H](NC(=O)[C@H](Cc1ccccc1)NC(=O)[C@@H](NC(=O)CNC(=O)[C@H](CCC(N)=O)NC(=O)C(C)(C)NC(=O)[C@@H](N)Cc1c[nH]cn1)[C@@H](C)O)[C@@H](C)O)C(=O)N[C@@H](CC(=O)O)C(=O)N[C@@H](C)C(=O)N[C@@H](CCCNC(=N)N)C(=O)N[C@@H](C)C(=O)N[C@@H](C)C(=O)N[C@@H](CCC(N)=O)C(=O)N[C@@H](CC(=O)O)C(=O)N[C@@H](Cc1ccccc1)C(=O)N[C@H](C(=O)N[C@@H](CCC(N)=O)C(=O)N[C@@H](Cc1c[nH]c2ccccc12)C(=O)N[C@@H](CC(C)C)C(=O)N[C@@H](CCS(C)(=O)=O)C(=O)N[C@@H](CCCCNC(=O)COCCOCCNC(=O)COCCOCCNC(=O)CC[C@H](NC(=O)CCCCCCCCCCCCCCCCCCC(=O)O)C(=O)O)C(=O)N[C@H](C(N)=O)[C@@H](C)O)C(C)C` [TP603] (H-H[Aib]QGTFTSDYSKYLDARAAQDFVQWL[Met(O2)]K([AEEA-AEEA-γGlu-C20 diacid])T-NH2; N-terminus assumed), for which, on human GCGR, the “hGCGR/hGLP1R (hTone)” value was found to be 1.6. Besides, the EC50 on human GCGR (setting [1]) and on human GLP1R (setting [2]) was below 5 nM each time.
With `CC(C)C[C@H](NC(=O)[C@H](Cc1c[nH]c2ccccc12)NC(=O)[C@H](CCC(N)=O)NC(=O)[C@@H](NC(=O)[C@H](Cc1ccccc1)NC(=O)[C@H](CC(=O)O)NC(=O)[C@H](CCCCNC(=O)COCCOCCNC(=O)COCCOCCNC(=O)CC[C@H](NC(=O)CCCCCCCCCCCCCCCCCCC(=O)O)C(=O)O)NC(=O)[C@H](C)NC(=O)[C@H](C)NC(=O)[C@H](CCCNC(=N)N)NC(=O)C(C)(C)NC(=O)[C@H](CC(=O)O)NC(=O)[C@H](CC(C)C)NC(=O)[C@H](Cc1ccc(O)cc1)NC(=O)[C@H](CCCCN)NC(=O)[C@H](CO)NC(=O)[C@H](Cc1ccc(O)cc1)NC(=O)[C@H](CC(=O)O)NC(=O)[C@H](CO)NC(=O)[C@@H](NC(=O)[C@H](Cc1ccccc1)NC(=O)[C@@H](NC(=O)CNC(=O)[C@H](CCC(N)=O)NC(=O)[C@](C)(CO)NC(=O)[C@@H](N)Cc1c[nH]cn1)[C@@H](C)O)[C@@H](C)O)C(C)C)C(=O)N[C@@H](CCS(C)(=O)=O)C(=O)N[C@@H](CC(=O)O)C(=O)N[C@H](C(N)=O)[C@@H](C)O` [TP592] (H-H[αMeS]QGTFTSDYSKYLD[Aib]RAAK([AEEA-AEEA-γGlu-C20 diacid])DFVQWL[Met(O2)]DT-NH2; N-terminus assumed), the EC50 was 3.39 nM on human GCGR (setting [3]), below 5 nM on human GCGR (setting [1]) and below 5 nM on human GLP1R (setting [2]). Also, the “hGCGR/hGLP1R (hTone)” value on human GCGR came out at 1.4.
With `CC(C)C[C@H](NC(=O)[C@H](Cc1ccc(O)cc1)NC(=O)[C@H](CCCCN)NC(=O)[C@H](CO)NC(=O)[C@H](Cc1ccc(O)cc1)NC(=O)[C@H](CC(=O)O)NC(=O)[C@H](CO)NC(=O)[C@@H](NC(=O)[C@H](Cc1ccccc1)NC(=O)[C@@H](NC(=O)CNC(=O)[C@H](CCC(N)=O)NC(=O)[C@](C)(CO)NC(=O)[C@@H](N)Cc1c[nH]cn1)[C@@H](C)O)[C@@H](C)O)C(=O)N[C@@H](CC(=O)O)C(=O)NC(C)(C)C(=O)N[C@@H](CCCNC(=N)N)C(=O)N[C@@H](C)C(=O)N[C@@H](C)C(=O)N[C@@H](CCC(N)=O)C(=O)N[C@@H](CCCCNC(=O)COCCOCCNC(=O)COCCOCCNC(=O)CC[C@H](NC(=O)CCCCCCCCCCCCCCCCC(=O)O)C(=O)O)C(=O)N[C@@H](Cc1ccccc1)C(=O)N[C@H](C(=O)N[C@@H](CCC(N)=O)C(=O)N[C@@H](Cc1c[nH]c2ccccc12)C(=O)N[C@@H](CC(C)C)C(=O)N[C@@H](CCS(C)(=O)=O)C(=O)N[C@@](C)(CC(=O)O)C(=O)N[C@H](C(N)=O)[C@@H](C)O)C(C)C` [TP621] (H-H[αMeS]QGTFTSDYSKYLD[Aib]RAAQK([AEEA-AEEA-γGlu-C18 diacid])FVQWL[Met(O2)][αMeD]T-NH2), the EC50 at human GCGR (setting [3]) was 0.25 nM; at human GCGR (setting [1]), below 5 nM; on human GLP1R (setting [2]) it was below 5 nM. Besides, the “hGCGR/hGLP1R (hTone)” value on human GCGR stood at 0.1.
In the case of `CC(C)C[C@H](NC(=O)[C@H](Cc1c[nH]c2ccccc12)NC(=O)[C@H](CCC(N)=O)NC(=O)[C@@H](NC(=O)[C@H](Cc1ccccc1)NC(=O)[C@H](CC(=O)O)NC(=O)[C@H](CCCCNC(=O)COCCOCCNC(=O)COCCOCCNC(=O)CC[C@H](NC(=O)CCCCCCCCCCCCCCCCC(=O)O)C(=O)O)NC(=O)[C@H](C)NC(=O)[C@H](C)NC(=O)[C@H](CCCNC(=N)N)NC(=O)C(C)(C)NC(=O)[C@H](CC(=O)O)NC(=O)[C@H](CC(C)C)NC(=O)[C@H](Cc1ccc(O)cc1)NC(=O)[C@H](CCCCN)NC(=O)[C@H](CO)NC(=O)[C@H](Cc1ccc(O)cc1)NC(=O)[C@H](CC(=O)O)NC(=O)[C@H](CO)NC(=O)[C@@H](NC(=O)[C@H](Cc1ccccc1)NC(=O)[C@@H](NC(=O)CNC(=O)[C@H](CCC(N)=O)NC(=O)C(C)(C)NC(=O)[C@@H](N)Cc1c[nH]cn1)[C@@H](C)O)[C@@H](C)O)C(C)C)C(=O)N[C@@H](CCS(C)(=O)=O)C(=O)N[C@@H](CCC(=O)O)C(=O)N[C@H](C(N)=O)[C@@H](C)O` [TP673] (H-H[Aib]QGTFTSDYSKYLD[Aib]RAAK([AEEA-AEEA-γGlu-C18 diacid])DFVQWL[Met(O2)]ET-NH2; N-terminus assumed), the concentration for a half-maximal effect (EC50) is 0.22 nM at human GCGR (setting [3]), below 5 nM on human GCGR (setting [1]) and below 5 nM at human GLP1R (setting [2]). The “hGCGR/hGLP1R (hTone)” value at human GCGR was determined as 0.3.
`CC(C)C[C@H](NC(=O)[C@H](Cc1ccc(O)cc1)NC(=O)[C@H](CCCCN)NC(=O)[C@H](CO)NC(=O)[C@H](Cc1ccc(O)cc1)NC(=O)[C@H](CC(=O)O)NC(=O)[C@H](CO)NC(=O)[C@@H](NC(=O)[C@H](Cc1ccccc1)NC(=O)[C@@H](NC(=O)CNC(=O)[C@H](CCC(N)=O)NC(=O)C(C)(C)NC(=O)[C@@H](N)Cc1c[nH]cn1)[C@@H](C)O)[C@@H](C)O)C(=O)N[C@@H](CC(=O)O)C(=O)NC(C)(C)C(=O)N[C@@H](CCCNC(=N)N)C(=O)N[C@@H](C)C(=O)N[C@@H](C)C(=O)N[C@@H](CCCCNC(=O)COCCOCCNC(=O)COCCOCCNC(=O)CC[C@H](NC(=O)CCCCCCCCCCCCCCCCCCC(=O)O)C(=O)O)C(=O)N[C@@H](CC(=O)O)C(=O)N[C@@H](Cc1ccccc1)C(=O)N[C@H](C(=O)N[C@@H](CCC(N)=O)C(=O)N[C@@H](Cc1c[nH]c2ccccc12)C(=O)N[C@@H](CC(C)C)C(=O)N[C@@H](CCS(C)(=O)=O)C(=O)N[C@@](C)(CC(=O)O)C(=O)N[C@H](C(N)=O)[C@@H](C)O)C(C)C` [TP588] (H-H[Aib]QGTFTSDYSKYLD[Aib]RAAK([AEEA-AEEA-γGlu-C20 diacid])DFVQWL[Met(O2)][αMeD]T-NH2; N-terminus assumed): the “hGCGR/hGLP1R (hTone)” value on human GCGR was 0.9. The EC50 on human GCGR (setting [1]) and at human GLP1R (setting [2]) was below 5 nM in each case.
`CC(C)C[C@H](NC(=O)[C@H](Cc1c[nH]c2ccccc12)NC(=O)[C@H](CCC(N)=O)NC(=O)[C@@H](NC(=O)[C@H](Cc1ccccc1)NC(=O)[C@H](CC(=O)O)NC(=O)[C@H](CCCCNC(=O)COCCOCCNC(=O)COCCOCCNC(=O)CC[C@H](NC(=O)CCCCCCCCCCCCCCCCC(=O)O)C(=O)O)NC(=O)[C@H](C)NC(=O)[C@H](C)NC(=O)[C@H](CCCNC(=N)N)NC(=O)[C@H](C)NC(=O)[C@](C)(CC(=O)O)NC(=O)[C@H](CC(C)C)NC(=O)[C@H](Cc1ccc(O)cc1)NC(=O)[C@H](CCCCN)NC(=O)[C@H](CO)NC(=O)[C@H](Cc1ccc(O)cc1)NC(=O)[C@H](CC(=O)O)NC(=O)[C@H](CO)NC(=O)[C@@H](NC(=O)[C@H](Cc1ccccc1)NC(=O)[C@@H](NC(=O)CNC(=O)[C@H](CCC(N)=O)NC(=O)C(C)(C)NC(=O)[C@@H](N)Cc1c[nH]cn1)[C@@H](C)O)[C@@H](C)O)C(C)C)C(=O)N[C@@H](CCS(C)(=O)=O)C(=O)N[C@@](C)(CC(=O)O)C(=O)N[C@H](C(N)=O)[C@@H](C)O` [TP610] (H-H[Aib]QGTFTSDYSKYL[αMeD]ARAAK([AEEA-AEEA-γGlu-C18 diacid])DFVQWL[Met(O2)][αMeD]T-NH2; N-terminus assumed): the “hGCGR/hGLP1R (hTone)” value on human GCGR is given as below 0.01. Further, the EC50 on human GLP1R (cells expressing human GLP1R, cAMP production, buffer with or without 20% human serum (not stated which), read-out: GLP1R EC50 human) is above 5 nM.
On to `CC(C)C[C@H](NC(=O)[C@H](Cc1ccc(O)cc1)NC(=O)[C@H](CCCCN)NC(=O)[C@H](CO)NC(=O)[C@H](Cc1ccc(O)cc1)NC(=O)[C@H](CC(=O)O)NC(=O)[C@H](CO)NC(=O)[C@@H](NC(=O)[C@H](Cc1ccccc1)NC(=O)[C@@H](NC(=O)CNC(=O)[C@H](CCC(N)=O)NC(=O)C(C)(C)NC(=O)[C@@H](N)Cc1c[nH]cn1)[C@@H](C)O)[C@@H](C)O)C(=O)N[C@@H](CC(=O)O)C(=O)N[C@@H](C)C(=O)N[C@@H](CCCNC(=N)N)C(=O)N[C@@H](C)C(=O)N[C@@H](C)C(=O)N[C@@H](CCC(N)=O)C(=O)N[C@@H](CCCCNC(=O)COCCOCCNC(=O)COCCOCCNC(=O)CC[C@H](NC(=O)CCCCCCCCCCCCCCC(=O)O)C(=O)O)C(=O)N[C@@H](Cc1ccccc1)C(=O)N[C@H](C(=O)N[C@@H](CCC(N)=O)C(=O)N[C@@H](Cc1c[nH]c2ccccc12)C(=O)N[C@@H](CC(C)C)C(=O)N[C@@H](CCS(C)(=O)=O)C(=O)N[C@@H](CCC(=O)O)C(=O)N[C@H](C(N)=O)[C@@H](C)O)C(C)C` [TP825] (H-H[Aib]QGTFTSDYSKYLDARAAQK([AEEA-AEEA-γGlu-C16 diacid])FVQWL[Met(O2)]ET-NH2; N-terminus assumed), for which the “hGCGR/hGLP1R (hTone)” value on human GCGR is reported as 2.0. In addition, the EC50 on human GCGR (setting [1]) and on human GLP1R (setting [2]) was below 5 nM in each case.
